Experimental data from ChEMBL document CHEMBL1201862, “PubChem BioAssay data set” (2004).
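Results reflect a 48-hour exposure of cells in 96-well plates to compound at five concentrations. The concentration for 50% growth inhibition is given as GI50.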 Active and inactive are the calls of the source. No stated cut-off is given here; in the data, active = GI50 up to about 1.1 µM and inactive = higher.

Legend:
Assay in all cases: growth of human tumour cells (NCI), 48 h
Malme-3M = system: Malme-3M
NCI-H226 = system: NCI-H226
LOX IMVI = system: LOX IMVI
MCF7 = system: MCF7
RXF 393 = system: RXF 393
CCRF-CEM = system: CCRF-CEM
SNB-75 = system: SNB-75
MDA-MB-231 = system: MDA-MB-231
U-251 = system: U-251
OVCAR-8 = system: OVCAR-8
MOLT-4 = system: MOLT-4
SK-MEL-28 = system: SK-MEL-28
SK-MEL-2 = system: SK-MEL-2
A549 = system: A549
HCT-116 = system: HCT-116
NCI-H522 = system: NCI-H522
HCC 2998 = system: HCC 2998
ACHN = system: ACHN
MDA-N = system: MDA-N
SN12C = system: SN12C

SMILES	GI50 (Malme-3M)	GI50 (NCI-H226)	GI50 (LOX IMVI)	GI50 (MCF7)	GI50 (RXF 393)	GI50 (CCRF-CEM)	GI50 (SNB-75)	GI50 (MDA-MB-231)	GI50 (U-251)	GI50 (OVCAR-8)	GI50 (MOLT-4)	GI50 (SK-MEL-28)	GI50 (SK-MEL-2)	GI50 (A549)	GI50 (HCT-116)	GI50 (NCI-H522)	GI50 (HCC 2998)	GI50 (ACHN)	GI50 (MDA-N)	GI50 (SN12C)
COc1cc([C@@]23OC[C@@H]4[C@@H](OC[C@@H]42)c2cc4c(cc23)OCO4)cc(OC)c1OC	0.0838 µM (active)	< 0.01 µM (active)	< 0.01 µM (active)	< 0.01 µM (active)	0.873 µM (active)	< 0.01 µM (active)	< 0.01 µM (active)	< 0.01 µM (active)	< 0.01 µM (active)	< 0.01 µM (active)	< 0.01 µM (active)	23.5 µM (inactive)	< 0.01 µM (active)	< 0.01 µM (active)	< 0.01 µM (active)	< 0.01 µM (active)	< 0.01 µM (active)	< 0.0127 µM (active)	< 0.01 µM (active)	–
C=C1[C@@](C)([C@@H]2CCCS2)[C@H]2C(C)=C[C@]1(C)n1c(=O)n(-c3ccccc3)c(=O)n12	> 100 µM (inactive)	> 100 µM (inactive)	–	> 100 µM (inactive)	–	> 100 µM (inactive)	46.5 µM (inactive)	> 100 µM (inactive)	> 100 µM (inactive)	–	> 100 µM (inactive)	> 100 µM (inactive)	> 100 µM (inactive)	> 100 µM (inactive)	> 100 µM (inactive)	> 100 µM (inactive)	> 100 µM (inactive)	> 100 µM (inactive)	> 100 µM (inactive)	> 100 µM (inactive)
N#CCCN(CCNc1ccccc1)C(=O)Nc1ccc(NC(=O)N(CCC#N)CCNc2ccccc2)cc1	> 100 µM (inactive)	> 73.5 µM (inactive)	51.1 µM (inactive)	> 100 µM (inactive)	> 45.3 µM (inactive)	–	26.2 µM (inactive)	> 100 µM (inactive)	> 100 µM (inactive)	> 73.8 µM (inactive)	> 100 µM (inactive)	> 94.8 µM (inactive)	> 100 µM (inactive)	> 100 µM (inactive)	> 100 µM (inactive)	21.1 µM (inactive)	> 100 µM (inactive)	> 100 µM (inactive)	> 100 µM (inactive)	> 100 µM (inactive)
CCOC(=O)C(C)(C)C(O)C(C)C (configuration not stated)	> 100 µM (inactive)	–	> 100 µM (inactive)	> 100 µM (inactive)	> 100 µM (inactive)	> 100 µM (inactive)	> 100 µM (inactive)	> 100 µM (inactive)	> 100 µM (inactive)	> 100 µM (inactive)	> 100 µM (inactive)	> 100 µM (inactive)	> 100 µM (inactive)	> 100 µM (inactive)	> 100 µM (inactive)	> 100 µM (inactive)	> 100 µM (inactive)	> 100 µM (inactive)	> 100 µM (inactive)	> 100 µM (inactive)
COC(=O)c1cc(OS(=O)(=O)C(F)(F)F)c(=O)n2c1CCCC2	> 100 µM (inactive)	9.2 µM (inactive)	> 100 µM (inactive)	> 100 µM (inactive)	> 100 µM (inactive)	> 100 µM (inactive)	> 100 µM (inactive)	> 100 µM (inactive)	> 100 µM (inactive)	> 100 µM (inactive)	> 100 µM (inactive)	> 100 µM (inactive)	> 100 µM (inactive)	> 100 µM (inactive)	> 100 µM (inactive)	> 100 µM (inactive)	–	> 100 µM (inactive)	> 100 µM (inactive)	> 100 µM (inactive)
CN(Cc1cnc2nc(N)nc(N)c2n1)c1ccc(C(=O)NC(CCC(=O)NCCC(P(=O)(O)O)P(=O)(O)O)C(=O)O)cc1 (configuration not stated)	> 35.8 µM (inactive)	> 89.7 µM (inactive)	4.38 µM (inactive)	5 µM (inactive)	> 100 µM (inactive)	6.08 µM (inactive)	> 100 µM (inactive)	> 100 µM (inactive)	25.9 µM (inactive)	7.29 µM (inactive)	6.5 µM (inactive)	> 100 µM (inactive)	> 49.5 µM (inactive)	11.6 µM (inactive)	3.67 µM (inactive)	> 88.3 µM (inactive)	71.4 µM (inactive)	11.5 µM (inactive)	8.55 µM (inactive)	11 µM (inactive)
C[C@]12C[C@@H](OC(=O)[C@]1(C)O)[C@@H]([C@]1(O)CC[C@H]3[C@@H]4C[C@H]5O[C@]56C[C@H]5O[C@H]5C(=O)[C@]6(C)[C@H]4CC[C@@]31C)C2	> 5 µM (inactive)	> 50 µM (inactive)	–	> 50 µM (inactive)	> 50 µM (inactive)	> 50 µM (inactive)	36 µM (inactive)	> 50 µM (inactive)	> 50 µM (inactive)	> 50 µM (inactive)	> 50 µM (inactive)	> 50 µM (inactive)	> 50 µM (inactive)	> 50 µM (inactive)	> 50 µM (inactive)	> 50 µM (inactive)	> 50 µM (inactive)	> 50 µM (inactive)	> 50 µM (inactive)	> 50 µM (inactive)
